Patent US9637472B2, “Substituted 6,5-fused bicyclic heteroaryl compounds” (Epizyme, Inc., priority 2011, dated 2017)

Molecular target: EZH2 (Homo sapiens (Human), UniProt Q15910)
Assay: PRC2 enzyme assay on peptide substrates
Type: biochemical
Details: PRC2 enzyme assays on peptide substrates; 4 nM enzyme, 30 min preincubation at 25° C.; read-out: EZH2 IC50

Chain of EZH2 (Q15910 other isoform, or with tags, fused parts or gaps): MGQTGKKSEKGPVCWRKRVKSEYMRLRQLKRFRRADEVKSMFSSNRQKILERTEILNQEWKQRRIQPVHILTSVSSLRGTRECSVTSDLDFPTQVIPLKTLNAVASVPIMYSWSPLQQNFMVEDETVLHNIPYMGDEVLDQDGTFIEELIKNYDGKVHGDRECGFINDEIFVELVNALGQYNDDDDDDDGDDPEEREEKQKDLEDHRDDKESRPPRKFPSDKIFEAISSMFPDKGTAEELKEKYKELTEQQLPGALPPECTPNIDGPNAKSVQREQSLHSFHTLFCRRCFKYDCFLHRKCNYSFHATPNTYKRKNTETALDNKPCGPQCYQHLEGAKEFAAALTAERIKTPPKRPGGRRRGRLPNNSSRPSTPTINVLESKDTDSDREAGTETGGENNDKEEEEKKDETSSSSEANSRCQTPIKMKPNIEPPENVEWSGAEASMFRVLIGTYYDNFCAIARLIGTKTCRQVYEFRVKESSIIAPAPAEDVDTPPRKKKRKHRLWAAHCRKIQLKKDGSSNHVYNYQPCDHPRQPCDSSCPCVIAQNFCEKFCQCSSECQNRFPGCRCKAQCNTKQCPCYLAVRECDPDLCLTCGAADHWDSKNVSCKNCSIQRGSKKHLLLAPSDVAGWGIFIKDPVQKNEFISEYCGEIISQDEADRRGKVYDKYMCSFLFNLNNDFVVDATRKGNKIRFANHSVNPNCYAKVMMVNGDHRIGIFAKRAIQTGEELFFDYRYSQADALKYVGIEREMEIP
Chain of EZH2 (O75530 whole entry partner): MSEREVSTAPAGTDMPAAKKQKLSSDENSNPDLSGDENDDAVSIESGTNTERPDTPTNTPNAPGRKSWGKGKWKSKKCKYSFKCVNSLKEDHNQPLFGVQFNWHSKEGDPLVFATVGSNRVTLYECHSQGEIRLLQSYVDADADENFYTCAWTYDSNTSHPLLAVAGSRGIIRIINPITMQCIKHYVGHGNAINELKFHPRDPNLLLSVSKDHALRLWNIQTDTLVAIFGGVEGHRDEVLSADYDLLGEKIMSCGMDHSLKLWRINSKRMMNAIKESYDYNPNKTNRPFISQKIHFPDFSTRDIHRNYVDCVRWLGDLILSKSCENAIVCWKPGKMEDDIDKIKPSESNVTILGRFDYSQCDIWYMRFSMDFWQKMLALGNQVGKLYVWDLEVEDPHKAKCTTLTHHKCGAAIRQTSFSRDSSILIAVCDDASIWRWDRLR
Chain of EZH2 (Q15022 whole entry partner): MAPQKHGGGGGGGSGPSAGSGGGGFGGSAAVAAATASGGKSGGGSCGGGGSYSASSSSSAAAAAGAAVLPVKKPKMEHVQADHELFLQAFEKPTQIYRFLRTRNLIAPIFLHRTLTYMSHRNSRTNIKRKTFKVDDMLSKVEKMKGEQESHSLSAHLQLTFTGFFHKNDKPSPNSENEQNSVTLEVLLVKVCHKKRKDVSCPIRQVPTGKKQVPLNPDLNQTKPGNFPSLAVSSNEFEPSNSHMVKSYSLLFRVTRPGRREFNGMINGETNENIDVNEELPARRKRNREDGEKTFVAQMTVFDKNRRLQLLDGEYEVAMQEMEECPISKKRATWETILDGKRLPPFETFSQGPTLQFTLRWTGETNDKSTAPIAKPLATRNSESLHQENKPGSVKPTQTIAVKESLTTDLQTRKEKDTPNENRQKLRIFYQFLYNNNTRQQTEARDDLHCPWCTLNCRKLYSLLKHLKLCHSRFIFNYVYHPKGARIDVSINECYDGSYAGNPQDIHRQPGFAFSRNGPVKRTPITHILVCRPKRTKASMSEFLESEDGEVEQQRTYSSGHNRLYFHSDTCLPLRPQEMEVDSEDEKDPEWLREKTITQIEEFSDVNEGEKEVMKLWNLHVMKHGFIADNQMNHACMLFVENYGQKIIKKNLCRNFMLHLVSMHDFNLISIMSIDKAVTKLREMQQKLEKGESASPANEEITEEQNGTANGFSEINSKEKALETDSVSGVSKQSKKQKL
Chain of EZH2 (Q09028 whole entry partner): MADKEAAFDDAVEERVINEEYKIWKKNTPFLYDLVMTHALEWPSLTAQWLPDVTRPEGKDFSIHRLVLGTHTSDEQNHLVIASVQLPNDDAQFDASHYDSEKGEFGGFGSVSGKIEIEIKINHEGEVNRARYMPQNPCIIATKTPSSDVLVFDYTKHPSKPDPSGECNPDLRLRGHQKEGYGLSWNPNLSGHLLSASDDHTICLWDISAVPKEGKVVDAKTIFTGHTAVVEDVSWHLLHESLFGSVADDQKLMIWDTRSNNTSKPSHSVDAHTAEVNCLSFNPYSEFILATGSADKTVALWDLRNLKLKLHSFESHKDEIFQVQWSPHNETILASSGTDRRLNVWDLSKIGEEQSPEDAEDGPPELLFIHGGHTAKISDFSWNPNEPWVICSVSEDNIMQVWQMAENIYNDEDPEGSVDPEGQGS

Compound: Cc1cc(C)c(CNC(=O)c2cc(C(C)C)cc3c2cnn3C2CCCC2)c(=O)[nH]1 [Compound D-20, 1-cyclopentyl-N-((4,6-dimethyl-2-oxo-1,2-dihydropyridin-3-yl)methyl)-6-isopropyl-1H-indazole-4-carboxamide]
- IC50: 0.3 to 1 µM

Compound: Cc1cc(CN2CCC[C@@H]2C(N)=O)c(CNC(=O)c2cc(Br)cc3c2cnn3C2CCCC2)c(=O)[nH]1 [Compound D-22]
- IC50: 1 to 3 µM

Compound: Cc1cc(C)c(CNC(=O)c2cc(C(F)(F)F)cc3c2cnn3C2CCN(C(=O)C(C)(C)C)CC2)c(=O)[nH]1 [Compound D-23]
- IC50: < 0.3 µM

Compound: Cc1cc(C)c(CNC(=O)c2cc(Cl)cc3c2cnn3C2CCN(C(=O)C(C)(C)C)CC2)c(=O)[nH]1 [Compound D-24]
- IC50: < 0.3 µM

Compound: Cc1cc(C)c(CNC(=O)c2cc(C3=CC(C)(C)NC(C)(C)C3)cc3c2cnn3C2CCN(C(=O)C(C)(C)C)CC2)c(=O)[nH]1 [Compound D-25]
- IC50: < 0.3 µM

Compound: Cc1cc(C)c(CNC(=O)c2cc(Br)cc3c2cnn3C2CCN(C(=O)C3CCCC3)CC2)c(=O)[nH]1 [Compound D-26]
- IC50: 0.3 to 1 µM

Compound: Cc1cc(C)c(CNC(=O)c2cc(Br)cc3c2cnn3C2CCN(C(=O)C3CCCCC3)CC2)c(=O)[nH]1 [Compound D-27]
- IC50: 0.3 to 1 µM

Compound: Cc1cc(C)c(CNC(=O)c2cc(Br)cc3c2cnn3C2CCN(C(=O)C3CCOCC3)CC2)c(=O)[nH]1 [Compound D-28]
- IC50: 0.3 to 1 µM

Compound: Cc1cc(C)c(CNC(=O)c2cc(Br)cc3c2cnn3C2CCN(C(=O)CN(C)C)CC2)c(=O)[nH]1 [Compound D-29]
- IC50: 0.3 to 1 µM

Compound: Cc1cc(C)c(CNC(=O)c2cc(C3CCN(CCCN(C)C)CC3)cc3c2cnn3C2CCCC2)c(=O)[nH]1 [Compound D-30]
- IC50: < 0.3 µM

Compound: Cc1cc(C)c(CNC(=O)c2cc(Br)cc3c2cnn3C2CCN(C(=O)OC(C)(C)C)C2)c(=O)[nH]1 [Compound D-32]
- IC50: 0.3 to 1 µM

Compound: Cc1cc(C)c(CNC(=O)c2cc(Br)cc3c2cnn3C2CCN(C(=O)C(C)(C)C)C2)c(=O)[nH]1 [Compound D-33]
- IC50: < 0.3 µM

Compound: Cc1cc(C)c(CNC(=O)c2cc(Br)cc3c2cnn3C2CN(C(=O)OC(C)(C)C)C2)c(=O)[nH]1 [Compound D-34]
- IC50: 1 to 3 µM

Compound: CC(=O)N1CC(n2ncc3c(C(=O)NCc4c(C)cc(C)[nH]c4=O)cc(Br)cc32)C1 [Compound D-35]
- IC50: 1 to 3 µM

Compound: Cc1cc(C)c(CNC(=O)c2cc(Br)cc3c2cnn3C2CN(C(=O)C(C)(C)C)C2)c(=O)[nH]1 [Compound D-36]
- IC50: 1 to 3 µM

Compound: Cc1cc(C)c(CNC(=O)c2cc(C3=CCN(C(=O)C4CNC4)CC3)cc3c2cnn3C2CCCC2)c(=O)[nH]1 [Compound D-37]
- IC50: < 0.3 µM

Compound: Cc1cc(C)c(CNC(=O)c2cc(C3=CCN(C(=O)CN(C)C)CC3)cc3c2cnn3C2CCCC2)c(=O)[nH]1 [Compound D-38]
- IC50: < 0.3 µM

Compound: Cc1cc(C)c(CNC(=O)c2cc(C3=CCN(C(=O)C4CCNCC4)CC3)cc3c2cnn3C2CCCC2)c(=O)[nH]1 [Compound D-39]
- IC50: < 0.3 µM

Compound: Cc1cc(C)c(CNC(=O)c2cc(C3=CCNCC3)cc3c2cnn3C2CCCC2)c(=O)[nH]1 [Compound D-41]
- IC50: < 0.3 µM

Compound: Cc1cc(C)c(CNC(=O)c2cc(Br)cc3c2cnn3C2CCN(C(=O)C(C)C)CC2)c(=O)[nH]1 [Compound D-42]
- IC50: < 0.3 µM

Compound: Cc1cc(C)c(CNC(=O)c2cc(C=O)cc3c2cnn3C2CCCC2)c(=O)[nH]1 [Compound D-43]
- IC50: < 0.3 µM

Compound: CNCC(=O)N1CC=C(c2cc(C(=O)NCc3c(C)cc(C)[nH]c3=O)c3cnn(C4CCCC4)c3c2)CC1 [Compound D-45]
- IC50: < 0.3 µM

Compound: Cc1cc(C)c(CNC(=O)c2cc(C3CCN(CCN(C)C)CC3)cc3c2cnn3C2CCCC2)c(=O)[nH]1 [Compound D-46]
- IC50: < 0.3 µM

Compound: Cc1cc(C)c(CNC(=O)c2cc(C3=CCN(C(=O)CN)CC3)cc3c2cnn3C2CCCC2)c(=O)[nH]1 [Compound D-47]
- IC50: < 0.3 µM

Compound: CNCCN1CC=C(c2cc(C(=O)NCc3c(C)cc(C)[nH]c3=O)c3cnn(C4CCCC4)c3c2)CC1 [Compound D-48]
- IC50: < 0.3 µM

Compound: Cc1cc(C)c(CNC(=O)c2cc(C3=CCN(CCN)CC3)cc3c2cnn3C2CCCC2)c(=O)[nH]1 [Compound D-49]
- IC50: < 0.3 µM

Compound: Cc1cc(C)c(CNC(=O)c2cc(C3=CCN(C(=O)C4CN(C)C4)CC3)cc3c2cnn3C2CCCC2)c(=O)[nH]1 [Compound D-50]
- IC50: < 0.3 µM

Compound: CNCCN1CCC(c2cc(C(=O)NCc3c(C)cc(C)[nH]c3=O)c3cnn(C4CCCC4)c3c2)CC1 [Compound D-51]
- IC50: < 0.3 µM

Compound: Cc1cc(C)c(CNC(=O)c2cc(Br)cc3c2cnn3C2CCN(C(=O)C3CCNCC3)CC2)c(=O)[nH]1 [Compound D-52]
- IC50: < 0.3 µM

Compound: Cc1cc(C)c(CNC(=O)c2cc(CNCCN(C)C)cc3c2cnn3C2CCCC2)c(=O)[nH]1 [Compound D-53]
- IC50: 0.3 to 1 µM

Compound: Cc1cc(C)c(CNC(=O)c2cc(C3=CCN(C(=O)CO)CC3)cc3c2cnn3C2CCCC2)c(=O)[nH]1 [Compound D-54]
- IC50: 0.3 to 1 µM

Compound: CCC(=O)N1CCC(n2ncc3c(C(=O)NCc4c(C)cc(C)[nH]c4=O)cc(Br)cc32)CC1 [Compound D-55]
- IC50: 0.3 to 1 µM

Compound: CC(=O)N1CCC(n2ncc3c(C(=O)NCc4c(C)cc(C)[nH]c4=O)cc(Br)cc32)CC1 [Compound D-59]
- IC50: 0.3 to 1 µM

Compound: CCc1cc(C(=O)NCc2c(C)cc(C)[nH]c2=O)c2cnn(C3CCCC3)c2c1 [Compound D-60]
- IC50: 0.3 to 1 µM

Compound: Cc1cc(CN(C)CCCN(C)C)c(CNC(=O)c2cc(Br)cc3c2cnn3C2CCCC2)c(=O)[nH]1 [Compound D-62]
- IC50: 0.3 to 1 µM

Compound: Cc1cc(CN2CCN(C)CC2)c(CNC(=O)c2cc(Br)cc3c2cnn3C2CCCC2)c(=O)[nH]1 [Compound D-63]
- IC50: 0.3 to 1 µM

Compound: Cc1cc(C)c(CNC(=O)c2cc(CN3CCOCC3)cc3c2cnn3C2CCCC2)c(=O)[nH]1 [Compound D-64]
- IC50: 0.3 to 1 µM

Compound: Cc1cc(C)c(CNC(=O)c2cccc3c2cnn3C2CCCC2)c(=O)[nH]1 [Compound D-66]
- IC50: 0.3 to 1 µM

Compound: Cc1cc(C)c(CNC(=O)c2cc(CN(C)CCCN(C)C)cc3c2cnn3C2CCCC2)c(=O)[nH]1 [Compound D-67]
- IC50: 0.3 to 1 µM

Compound: Cc1cc(C)c(CNC(=O)c2cc(COCCO)cc3c2cnn3C2CCCC2)c(=O)[nH]1 [Compound D-68]
- IC50: 0.3 to 1 µM

Compound: Cc1cc(CN2CCNC(=O)C2)c(CNC(=O)c2cc(Br)cc3c2cnn3C2CCCC2)c(=O)[nH]1 [Compound D-69]
- IC50: 1 to 3 µM

Compound: Cc1cc(C)c(CNC(=O)c2cc(Br)cc3c2cnn3C2CCN(C(C)C)CC2)c(=O)[nH]1 [Compound D-70]
- IC50: 1 to 3 µM

Compound: Cc1cc(C)c(CNC(=O)c2cccc3c2cnn3C(C)C)c(=O)[nH]1 [Compound D-71]
- IC50: 1 to 3 µM

Compound: COCCOCc1cc(C(=O)NCc2c(C)cc(C)[nH]c2=O)c2cnn(C3CCCC3)c2c1 [Compound D-72]
- IC50: 1 to 3 µM

Compound: COCCNCc1cc(C(=O)NCc2c(C)cc(C)[nH]c2=O)c2cnn(C3CCCC3)c2c1 [Compound D-73]
- IC50: 1 to 3 µM

Compound: Cc1cc(CN2CCN(C)CC2)c(CNC(=O)c2cccc3c2cnn3C2CCCC2)c(=O)[nH]1 [Compound D-74]
- IC50: 1 to 3 µM

Compound: Cc1cc(CN(C)CCN(C)C)c(CNC(=O)c2cccc3c2cnn3C2CCCC2)c(=O)[nH]1 [Compound D-75]
- IC50: 1 to 3 µM

Compound: Cc1cc(CN(C)CCN)c(CNC(=O)c2cccc3c2cnn3C2CCCC2)c(=O)[nH]1 [Compound D-76]
- IC50: 1 to 3 µM

Compound: Cc1cc(C)c(CNC(=O)c2cc(CNCCO)cc3c2cnn3C2CCCC2)c(=O)[nH]1 [Compound D-77]
- IC50: 1 to 3 µM

Compound: Cc1cc(C)c(CNC(=O)c2cc(CN(C)CCN(C)C)cc3c2cnn3C2CCCC2)c(=O)[nH]1 [Compound D-78]
- IC50: 1 to 3 µM
